Reference: patent publication US11389415B2, “Methods of regulating cannabinoid receptor activity-related disorders and diseases” (The United States of America as represented by the …, priority 2012, dated 2022)
Where “and” joins values, the source holds several entries; their conditions need not be identical. Equal entries are not always repeated.

Tests used:
[1] = Plasma and brain tissue concentrations after IV administration in Sprague-Dawley rats; type: in vivo, rat; details: for AUCinf / AUClast / Cmax / t1/2 (hr), elimination phase half life / C^0 (ng/ml), plasma concentration extrapolated to time 0 / Cl (ml/hr/kg), whole body clearance / V (l/kg), apparent volume of distribution: male Sprague-Dawley rats; for AUCinf / AUClast / Cmax / t1/2 (hr), elimination phase half life: plasma
Experimental: To determine plasma and brain tissue concentrations of MNF, the concentrations of MNF and its metabolites in plasma and brain tissue samples obtained from male Sprague-Dawley rats were determined after administration of a single IV dose of 10 mg/kg of MNF. The assays were conducted using an Eclipse XDB-C18 guard column (4.6 mm×12.5 mm) and an Atlantis HILIC column (150×2.1 mm ID, […]). The mobile phase consisted of water containing 0.1% formic acid as Component A and acetonitrile as component B. A linear gradient was run as follows: 0 minutes 95% B; 5 minutes 60% B; 6 minutes 80% B; 10 minutes 95% B at a flow rate of 1.0 ml/minutes. The total run time was 15 minutes per sample. Identification and quantification of the analytes was accomplished using an API-4000 LC-MS/MS in positive electrospray ionization mode and data was acquired employing multiple reaction monitoring (MRM) and the following MRM transitions: MNF (369-200); MNF-Gluc (545-200).
Ten mg/kg MNF was administered IV to male Sprague-Dawley rats and the plasma concentrations of MNF were determined between 10 minutes and 24 hours post administration with the levels measured in 3 animals per time point. In the same study, the concentration of MNF in brain tissue was measured between 10 and 60 minutes after administration with 3 animals per time point. The MNF concentration in brain tissue was 200 ng/mg tissue at 10 minutes after administration and peaked at 30 minutes at 800 ng/mg tissue. The relative distribution between the concentration of MNF in blood (measured as ng/ml) and brain tissue (measured as ng/mg tissue) was 0.2 at 10 minutes and 1.0 at 30 minutes and 60 minutes reflecting an equivalent distribution between both the central and peripheral body compartments. […] Further, the apparent volume of distribution (V) is high indicating extensive tissue distribution.

ERK1/2 = ERK1/2 phosphorylation (GPR55 downstream signaling) in PANC-1 cells; type: cell-based, human
Experimental: Western blot analysis. For detection of intracellular signaling proteins, cells were lysed in radioimmunoprecipitation buffer containing EGTA and EDTA (Boston BioProducts, Ashland, Mass.). The lysis buffer contained a protease inhibitor cocktail (Sigma-Aldrich) and phosphatase inhibitor cocktail (Calbiochem, San Diego, Calif.). Equivalent amount of proteins (14 and 54 μg/well for PANC-1 and HepG2 cells, respectively) were separated on 4 to 12% precast gels (Invitrogen, Carlsbad, Calif.) using SDS-polyacrylamide gel electrophoresis under reducing conditions and then electrophoretically transferred onto polyvinylidene fluoride membrane (Invitrogen). Western blots were performed according to standard methods, which involved blocking in 5% non-fat milk and incubated with the antibody of interest, followed by incubation with a secondary antibody conjugated with the enzyme horseradish perodixase. […] The quantification of bands was done by volume densitometry by using ImageJ software. […]
Effect of MNF on O-1602-mediated increase in cell signaling. Serum-starved cells were pretreated in the absence or presence of 1 μM MNF for 10 minutes followed by a 10 minute incubation with 0, 2.5 and 10 μM O-1602 or 10% FBS, after which the levels of total ERK2 and phosphorylated forms of ERK1/2 (pErk1/2, Thr202/Tyr204), were determined by Western blotting technique. […]

GPR55 = GPR55 (Homo sapiens, UniProt Q9Y2T6); test: GPR55 internalization assay in hGPR55-HEK293 cells; type: cell-based; details: 1 μM pretreatment 45 minutes
Experimental: GPR55 internalization assay. Endocytosis of GPR55 was observed following a previously described protocol with minor modifications (Henstridge et al., Br. J. Pharmacol. 160: 604-614, 2010). Briefly, hGPR55-HEK293 cells were grown on Lab-Tek II CC2 chamber slides (Thermo Scientific Nunc, Rochester, N.Y.) for 48 hours in regular media and then were serum starved for 1 hour. A preincubation with 1:1000 rabbit HA antibody (Covance, Md.) was performed in the presence of vehicle (0.1% DMSO) or 1 μM MNF in serum-free media for 45 minutes at 37° C. in the CO2 incubator. Cells were then washed extensively with PBS and treated with 5 μM 01602 in serum-free media for 20 minutes at 37° C. in the CO2 incubator. Subsequently, cells were washed three times, fixed in fresh 3.7% paraformaldehyde in PBS (10 min), and incubated with anti-rabbit Alexa Fluor 488 antibody (Molecular Probes, Eugene, Oreg.; 1:1000, 30 minutes). Cells were washed and fixed for a second time prior to permeabilization with 0.2% Triton X-100 (5 minutes). Incubation with anti-rabbit Alexa Fluor 568 antibody (Molecular Probes; 1:1000, 30 minutes) was carried out to determine the extent of internalized GPR55-HA antibody complex. […]

[2] = 10 mg/kg IV, individual rat, 10 mg/kg

Chain of GPR55 (Q9Y2T6 whole entry): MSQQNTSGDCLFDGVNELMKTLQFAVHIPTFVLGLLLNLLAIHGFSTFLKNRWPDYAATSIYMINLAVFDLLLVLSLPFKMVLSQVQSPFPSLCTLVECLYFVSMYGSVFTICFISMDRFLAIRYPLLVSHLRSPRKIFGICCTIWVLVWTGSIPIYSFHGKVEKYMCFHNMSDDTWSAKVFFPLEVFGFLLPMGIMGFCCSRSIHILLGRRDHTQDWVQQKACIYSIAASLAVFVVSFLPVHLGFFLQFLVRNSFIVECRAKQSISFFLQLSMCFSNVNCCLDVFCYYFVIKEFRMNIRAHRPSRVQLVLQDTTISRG

COc1ccc(C[C@@H](C)NC[C@H](O)c2cc(O)cc(O)c2)c2ccccc12 [(R,R′)-MNF, (R,R′)-4′-methoxy-1-naphthylfenoterol]
AUCinf ([1]; 10 mg/kg IV, Mean): 4.378 µg·h/mL
AUClast ([1]; 10 mg/kg IV, Mean): 3.5193 µg·h/mL
Cmax ([1]; 10 mg/kg IV, Mean): 1.823 µg/mL
t1/2 (hr), elimination phase half life ([1]; 10 mg/kg IV, Mean): 13.8 h
AUCinf [1, 2]: 4.1036 µg·h/mL and 5.3352 µg·h/mL and 3.6952 µg·h/mL
AUClast [1, 2]: 3.5822 µg·h/mL and 4.0707 µg·h/mL and 2.9051 µg·h/mL
Cmax [1, 2]: 1.7807 µg/mL and 2.3049 µg/mL and 1.3834 µg/mL
t1/2 (hr), elimination phase half life [1, 2]: 9.8 h and 18.6 h and 13.0 h
C^0 (ng/ml), plasma concentration extrapolated to time 0 ([1]; 10 mg/kg IV, Mean): 3168.5 ng/mL
Cl (ml/hr/kg), whole body clearance ([1]; 10 mg/kg IV, Mean): 2339.1 mL/h/kg
V (l/kg), apparent volume of distribution ([1]; 10 mg/kg IV, Mean): 45.1 L/kg
C^0 (ng/ml), plasma concentration extrapolated to time 0 [1, 2]: 3033.4 ng/mL and 4131.4 ng/mL and 2340.7 ng/mL
Cl (ml/hr/kg), whole body clearance [1, 2]: 2436.9 mL/h/kg and 1874.4 mL/h/kg and 2706.2 mL/h/kg
V (l/kg), apparent volume of distribution [1, 2]: 34.3 L/kg and 50.4 L/kg and 50.6 L/kg
MNF concentration in brain tissue ([1]; rats, 10 mg/kg IV, 10 minutes after administration): 200 ng/mg tissue
MNF concentration in brain tissue (peak) ([1]; rats, 10 mg/kg IV, 30 minutes after administration): 800 ng/mg tissue
passage through the blood brain barrier ([1]; rats, IV): capable of passing through the blood brain barrier
effect on O-1602-mediated ERK phosphorylation (ERK1/2; PANC-1, 1 μM pretreatment 10 minutes): displayed exquisite sensitivity to MNF with regard to O-1602-mediated ERK phosphorylation
effect on serum-induced ERK phosphorylation (ERK1/2; PANC-1, 1 μM pretreatment, 10% FBS): potently inhibited serum-induced ERK phosphorylation in both cell lines
effect on O-1602-induced GPR55 internalization (GPR55): blocked by pretreatment with MNF
